Here are results for one compound from patent publication US20240277705A1, “DOSAGE REGIMENS FOR ECUBECTEDIN” (PHARMA MAR S.A., priority 2021, published 2024).

“Also recorded” adds a separate entry of the source.

Test [1] relates to RXF 1781L (hypernephroma, poorly differentiated). The experiment in a line: Propidium iodide monolayer cell proliferation assay, RXF 1781L. The settings on record: four days of treatment. Type of test: cell-based, human. As to the method: Working stock solution of PM14 was prepared in DMSO at a concentration of 1.042 mM and small aliquots were stored at −20° C. On each day of an experiment, a frozen aliquot of the working stock solution was thawed and stored at room temperature prior to and during treatment.
Subsequent dilutions were done with complete RPMI 1640 cell culture medium. DMSO stock solutions were first diluted 1:22 (corresponding to 4.5% v/v DMSO). Starting with this solution, serial dilutions in half-log steps with cell culture medium were done using an intermediate dilution plate. Finally, 10 μl taken from the intermediate dilution plate were transferred to 140 μl/well of the cell culture plate. […]
Cell proliferation assay: A modified propidium iodide (PI) based monolayer assay was used to assess the anti-cancer activity of the compounds (Dengler WA, Schulte J, Berger DP, Mertelsmann R, Fiebig HH, Anti-Cancer Drugs 1995, 6: 522-532). Briefly, cells were harvested from exponential phase cultures, counted and plated in 96 well flat-bottom microtiter plates at a cell density of 4,000 to 30,000 cells/well dependent on the cell line's growth rate. […] After an incubation period of 1-2 hours at room temperature, fluorescence (FU) was measured using the Enspire Multimode Plate Reader (excitation A=530 nm, emission A=620 nm) to quantify the amount of attached viable cells. […]

The test system of a further test is MEXF 276L (melanoma). The experiment in a line: Propidium iodide monolayer cell proliferation assay, MEXF 276L. Type of test: cell-based, human. As to the method: (§1) Cell proliferation assay: A modified propidium iodide (PI) based monolayer assay was used to assess the anti-cancer activity of the compounds (Dengler WA, Schulte J, Berger DP, Mertelsmann R, Fiebig HH, Anti-Cancer Drugs 1995, 6: 522-532). Briefly, cells were harvested from exponential phase cultures, counted and plated in 96 well flat-bottom microtiter plates at a cell density of 4,000 to 30,000 cells/well dependent on the cell line's growth rate. After a 24 h recovery period, to allow the cells to resume exponential growth, 10 μl of culture medium (4 control wells/cell line/plate) or of culture medium with test compounds were added. PM14 was applied at ten concentrations in half-log increments in duplicates up to 3.16 pM and treatment continued for four days. […] After an incubation period of 1-2 hours at room temperature, fluorescence (FU) was measured using the Enspire Multimode Plate Reader (excitation A=530 nm, emission A=620 nm) to quantify the amount of attached viable cells.
(§2) IC50 and IC70 values were calculated by 4 parameter non-linear curve fit using Oncotest Warehouse Software. […]
(§3) IC50 values were determined as described in Example 2, but using the following human cancer cell lines: • MEXF 276L (melanoma) • MEXF 462NL (melanoma) • MEXF 1341L (melanoma)

In another test the test system is MEXF 462NL (melanoma). In words: Propidium iodide monolayer cell proliferation assay, MEXF 462NL. Type of test: cell-based, human. The settings on record: MEXL 462NL. As to the method: as §1, §2, §3
Another test deals with MEXF 1341L (melanoma). The experiment in a line: Propidium iodide monolayer cell proliferation assay, MEXF 1341L. In kind it is cell-based, human. The settings on record: MEXL 1341L. The method, then: as §1, §2, §3
For the next test, the system named is advanced solid tumors. The experiment in a line: Phase I dose-escalating study, antitumor activity. The settings on record: patients, various cancers. In kind it is in vivo, human. The text has this: Antitumor response will be assessed using the RECIST v.1.1 and/or serum tumor markers as appropriate (see above).
Open-label, dose-escalating, phase I trial of PM14 administered as a 3-hour infusion i.v. every 3 weeks (q3wk) in human patients (pts) with advanced solid tumors, adequate organ function and ECOG PS score of 0-1. Two schedules were explored: Schedule A (Day 1 [D1], Day 8 [D8]) and Schedule B (D1).
Secondary Endpoints • Safety: patients will be evaluable for safety if they have received at least one partial infusion of PM14. AEs will be graded according to the NCI-CTCAE v.4. Additionally, treatment-related discontinuations and treatment compliance (dose reduction, skipped doses and/or treatment delays due to AEs), will be described. • Pharmacokinetics: PK analyses will be evaluated in plasma and urine by standard non-compartmental analysis (compartmental modeling may be performed if appropriate). […] Their mutational status might also be analyzed, if relevant. Their correlation with the clinical response and outcome after treatment will be assessed. • Efficacy: patients will be evaluable for efficacy if they receive at least one complete infusion of PM14 and have at least one clinical or radiological tumor assessment as per RECIST v.1.1 or serum markers, or if they are considered to have failed treatment. […]

Consider `COc1c(C)cc2c(c1O)[C@@H]1[C@@H]3[C@@H]4SC[C@]5(N[C@H](CO)Cc6c5[nH]c5ccccc65)C(=O)OC[C@@H](c5c6c(c(C)c(OC(C)=O)c54)OCO6)N3[C@@H](O)[C@H](C2)N1C` [PM14, ECUBECTEDIN], for which the IC50 in test [1] (Homo sapiens, 96 h, read-out: IC50, μM (geometric mean)) came out at 0.004 µM; with MEXF 276L (melanoma) (Homo sapiens, MEXF276L, read-out: IC50, μM (geometric mean)), 0.0002 µM; in the test with MEXF 462NL (melanoma) (Homo sapiens, MEXF 462NL, read-out: IC50, μM (geometric mean)), 0.0001 µM; in the test with MEXF 1341L (melanoma) (Homo sapiens, MEXF 1341L, read-out: IC50, μM (geometric mean)), 0.0004 µM. Further, the “IC70, μM (geometric mean)” value came out at 0.005 µM in test [1], 0.0003 µM in the test with MEXF 276L (melanoma), 0.0001 µM in the test with MEXF 462NL (melanoma) and 0.0006 µM in the test on MEXF 1341L (melanoma). Also, the antitumor response entry in the test with advanced solid tumors is “prolonged tumor stabilizations; also recorded: stable disease (SD)”.
